Test results as given in patent US10604524B2, “Pyrropyrimidine compounds as MNKs inhibitors” (LIFEARC, priority 2015, dated 2020).

Assays:
[1] = target: PTK2 (Homo sapiens, UniProt Q05397); assay: Kinase selectivity screen; details: read-out: % Inhibition PTK2
[2] = target: PTK6 (Homo sapiens, UniProt Q13882); assay: Kinase selectivity screen; details: read-out: % Inhibition PTK6
[3] = target: EEF2K (Homo sapiens, UniProt O00418); assay: Kinase selectivity screen; details: read-out: % Inhibition EEF2K
[4] = target: EPHB1 (Homo sapiens, UniProt P54762); assay: Kinase selectivity screen; details: read-out: % Inhibition EPHB1
[5] = target: FGFR1 (Homo sapiens, UniProt P11362); assay: Kinase selectivity screen; details: read-out: % Inhibition FGFR1
[6] = target: RET (Homo sapiens, UniProt P07949); assay: Kinase selectivity screen; details: read-out: % Inhibition RET
Sequence of RET (P07949 29-1114, species assumed): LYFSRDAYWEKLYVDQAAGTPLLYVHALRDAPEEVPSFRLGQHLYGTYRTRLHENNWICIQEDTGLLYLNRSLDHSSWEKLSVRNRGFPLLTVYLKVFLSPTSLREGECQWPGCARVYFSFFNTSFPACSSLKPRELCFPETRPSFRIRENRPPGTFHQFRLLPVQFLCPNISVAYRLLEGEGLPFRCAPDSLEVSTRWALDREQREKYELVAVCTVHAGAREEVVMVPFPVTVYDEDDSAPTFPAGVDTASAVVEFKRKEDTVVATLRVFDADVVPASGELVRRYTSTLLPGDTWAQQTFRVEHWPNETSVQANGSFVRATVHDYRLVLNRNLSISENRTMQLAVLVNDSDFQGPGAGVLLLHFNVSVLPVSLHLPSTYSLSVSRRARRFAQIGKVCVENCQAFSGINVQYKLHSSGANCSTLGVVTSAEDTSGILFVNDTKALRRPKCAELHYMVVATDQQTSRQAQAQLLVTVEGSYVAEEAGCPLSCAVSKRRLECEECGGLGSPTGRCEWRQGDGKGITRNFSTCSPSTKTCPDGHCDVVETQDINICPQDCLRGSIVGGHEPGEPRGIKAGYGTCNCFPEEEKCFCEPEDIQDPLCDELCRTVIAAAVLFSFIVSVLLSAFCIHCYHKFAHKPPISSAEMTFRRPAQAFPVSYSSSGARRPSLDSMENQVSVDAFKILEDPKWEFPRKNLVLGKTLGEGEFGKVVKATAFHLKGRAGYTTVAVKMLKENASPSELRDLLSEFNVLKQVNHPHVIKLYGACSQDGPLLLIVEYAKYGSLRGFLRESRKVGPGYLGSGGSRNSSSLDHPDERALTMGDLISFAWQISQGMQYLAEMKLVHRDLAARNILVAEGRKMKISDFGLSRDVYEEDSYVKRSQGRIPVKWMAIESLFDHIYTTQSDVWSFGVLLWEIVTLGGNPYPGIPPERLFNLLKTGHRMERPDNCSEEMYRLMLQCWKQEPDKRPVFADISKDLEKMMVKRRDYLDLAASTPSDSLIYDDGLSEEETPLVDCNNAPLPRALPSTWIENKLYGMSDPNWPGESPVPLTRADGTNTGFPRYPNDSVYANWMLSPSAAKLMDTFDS

[7] = target: DYRK2 (Homo sapiens, UniProt Q92630); assay: Kinase selectivity screen; details: read-out: % Inhibition DYRK2
Sequence of DYRK2 (Q92630 whole entry, species assumed): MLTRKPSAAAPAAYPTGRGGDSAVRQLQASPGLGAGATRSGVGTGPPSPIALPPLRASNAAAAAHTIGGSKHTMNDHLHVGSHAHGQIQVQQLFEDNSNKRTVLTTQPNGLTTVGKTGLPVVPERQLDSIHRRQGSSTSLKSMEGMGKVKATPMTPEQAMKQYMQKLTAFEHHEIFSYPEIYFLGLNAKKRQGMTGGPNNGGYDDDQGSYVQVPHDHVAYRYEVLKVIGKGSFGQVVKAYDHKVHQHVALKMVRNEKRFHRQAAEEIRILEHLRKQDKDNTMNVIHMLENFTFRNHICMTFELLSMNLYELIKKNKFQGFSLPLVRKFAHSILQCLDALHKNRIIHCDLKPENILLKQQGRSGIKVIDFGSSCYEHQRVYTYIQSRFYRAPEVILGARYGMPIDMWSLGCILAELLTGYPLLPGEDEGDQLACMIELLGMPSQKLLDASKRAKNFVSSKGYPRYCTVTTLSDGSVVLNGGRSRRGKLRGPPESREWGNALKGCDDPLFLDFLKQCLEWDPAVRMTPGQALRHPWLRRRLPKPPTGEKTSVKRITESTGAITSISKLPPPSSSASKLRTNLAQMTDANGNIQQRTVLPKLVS

[8] = target: PIK3CD (Homo sapiens, UniProt O00329); assay: Kinase selectivity screen; details: read-out: % Inhibition PIK3CD
[9] = target: SRC (Homo sapiens, UniProt P12931); assay: Kinase selectivity screen; details: read-out: % Inhibition SRC
[10] = target: ULK2 (Homo sapiens, UniProt Q8IYT8); assay: Kinase selectivity screen; details: read-out: % Inhibition ULK2
[11] = target: TYRO3 (Homo sapiens, UniProt Q06418); assay: Kinase selectivity screen; details: read-out: % Inhibition TYRO3
[12] = target: IKBKB (Homo sapiens, UniProt O14920); assay: Kinase selectivity screen; details: read-out: % Inhibition IKBKB
[13] = target: TBK1 (Homo sapiens, UniProt Q9UHD2); assay: Kinase selectivity screen; details: read-out: % Inhibition TBK1
[14] = target: FES (Homo sapiens, UniProt P07332); assay: Kinase selectivity screen; details: read-out: % Inhibition FES
[15] = target: MAPK14 (Homo sapiens, UniProt Q16539); assay: Kinase selectivity screen; details: read-out: % Inhibition MAPK14
[16] = target: MAP3K7 (Homo sapiens, UniProt O43318); assay: Kinase selectivity screen; details: read-out: % Inhibition MAP3K7
[17] = target: PRKCE (Homo sapiens, UniProt Q02156); assay: Kinase selectivity screen; details: read-out: % Inhibition PRKCE
[18] = target: MTOR (Homo sapiens, UniProt P42345); assay: Kinase selectivity screen; details: read-out: % Inhibition MTOR
[19] = target: PIM2 (Homo sapiens, UniProt Q9P1W9); assay: Kinase selectivity screen; details: read-out: % Inhibition PIM2
Sequence of PIM2 (Q9P1W9 whole entry, species assumed): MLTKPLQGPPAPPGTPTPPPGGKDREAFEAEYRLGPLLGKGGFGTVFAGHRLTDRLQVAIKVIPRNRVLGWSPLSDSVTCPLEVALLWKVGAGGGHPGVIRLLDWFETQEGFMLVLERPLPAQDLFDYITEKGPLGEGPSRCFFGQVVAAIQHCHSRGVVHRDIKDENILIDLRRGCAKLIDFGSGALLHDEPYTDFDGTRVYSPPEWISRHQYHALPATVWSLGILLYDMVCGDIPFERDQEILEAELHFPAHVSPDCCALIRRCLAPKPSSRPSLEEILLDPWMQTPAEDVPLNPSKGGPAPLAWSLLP

[20] = target: PIK3CA (Homo sapiens, UniProt P42336); assay: Kinase selectivity screen; details: read-out: % Inhibition PIK3CA
[21] = target: CDK7/CCNH/MNAT1 (Homo sapiens, UniProt P50613); assay: Kinase selectivity screen; details: read-out: % Inhibition CDK7/CCNH/MNAT1
[22] = target: FGFR4 (Homo sapiens, UniProt P22455); assay: Kinase selectivity screen; details: read-out: % Inhibition FGFR4
[23] = target: PAK1 (Homo sapiens, UniProt Q13153); assay: Kinase selectivity screen; details: read-out: % Inhibition PAK1
Sequence of PAK1 (Q13153 whole entry): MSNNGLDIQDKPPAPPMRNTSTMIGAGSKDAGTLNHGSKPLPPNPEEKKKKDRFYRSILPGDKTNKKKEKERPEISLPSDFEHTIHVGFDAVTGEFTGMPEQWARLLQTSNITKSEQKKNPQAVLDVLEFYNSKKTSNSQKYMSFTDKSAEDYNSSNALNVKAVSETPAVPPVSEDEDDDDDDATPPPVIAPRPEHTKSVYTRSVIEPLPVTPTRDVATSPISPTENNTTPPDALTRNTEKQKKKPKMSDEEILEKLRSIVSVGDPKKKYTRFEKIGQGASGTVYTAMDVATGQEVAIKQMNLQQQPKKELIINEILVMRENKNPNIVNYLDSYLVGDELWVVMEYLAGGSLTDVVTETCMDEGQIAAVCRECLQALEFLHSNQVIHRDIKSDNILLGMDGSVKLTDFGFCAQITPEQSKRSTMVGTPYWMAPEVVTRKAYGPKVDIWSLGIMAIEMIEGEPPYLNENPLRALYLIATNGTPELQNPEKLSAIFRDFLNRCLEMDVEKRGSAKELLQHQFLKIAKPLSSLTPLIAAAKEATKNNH

[24] = target: GSK3A (Homo sapiens, UniProt P49840); assay: Kinase selectivity screen; details: read-out: % Inhibition GSK3A
[25] = target: EPHA5 (Homo sapiens, UniProt P54756); assay: Kinase selectivity screen; details: read-out: % Inhibition EPHA5
[26] = target: MINK1 (Homo sapiens, UniProt Q8N4C8); assay: Kinase selectivity screen; details: read-out: % Inhibition MINK1
[27] = target: PAK7 (Homo sapiens, UniProt Q9P286); assay: Kinase selectivity screen; details: read-out: % Inhibition PAK7
Sequence of PAK7 (Q9P286 whole entry, species assumed): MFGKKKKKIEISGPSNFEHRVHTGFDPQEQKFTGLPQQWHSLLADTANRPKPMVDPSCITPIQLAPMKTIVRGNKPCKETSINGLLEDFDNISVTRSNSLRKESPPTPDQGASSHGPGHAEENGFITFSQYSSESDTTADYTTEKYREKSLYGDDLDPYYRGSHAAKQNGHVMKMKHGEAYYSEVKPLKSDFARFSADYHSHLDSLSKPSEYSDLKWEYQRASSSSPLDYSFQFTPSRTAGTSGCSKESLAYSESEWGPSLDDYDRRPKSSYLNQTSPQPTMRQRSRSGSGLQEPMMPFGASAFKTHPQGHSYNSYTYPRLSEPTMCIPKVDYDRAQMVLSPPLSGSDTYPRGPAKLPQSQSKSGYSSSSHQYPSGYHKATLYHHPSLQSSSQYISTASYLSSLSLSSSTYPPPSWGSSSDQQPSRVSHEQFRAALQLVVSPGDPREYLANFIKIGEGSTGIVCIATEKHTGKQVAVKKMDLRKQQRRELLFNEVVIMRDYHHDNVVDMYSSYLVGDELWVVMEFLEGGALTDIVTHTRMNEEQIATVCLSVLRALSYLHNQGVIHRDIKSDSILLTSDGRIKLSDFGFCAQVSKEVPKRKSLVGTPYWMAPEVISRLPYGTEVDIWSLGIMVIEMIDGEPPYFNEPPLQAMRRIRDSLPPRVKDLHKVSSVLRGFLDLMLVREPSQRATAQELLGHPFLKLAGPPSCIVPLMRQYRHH

[28] = target: MST1R (Homo sapiens, UniProt Q04912); assay: Kinase selectivity screen; details: read-out: % Inhibition MST1R
[29] = target: AURKC (Homo sapiens, UniProt Q9UQB9); assay: Kinase selectivity screen; details: read-out: % Inhibition AURKC
Sequence of AURKC (Q9UQB9 whole entry, species assumed): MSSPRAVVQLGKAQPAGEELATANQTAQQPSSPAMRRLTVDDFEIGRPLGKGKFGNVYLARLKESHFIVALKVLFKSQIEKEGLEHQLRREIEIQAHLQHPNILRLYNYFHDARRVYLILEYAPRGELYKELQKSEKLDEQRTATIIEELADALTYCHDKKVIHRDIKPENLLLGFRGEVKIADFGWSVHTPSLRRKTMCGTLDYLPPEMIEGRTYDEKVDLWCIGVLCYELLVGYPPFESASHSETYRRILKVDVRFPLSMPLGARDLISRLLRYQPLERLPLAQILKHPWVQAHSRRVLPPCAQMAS

[30] = target: CDK1/CCNB1 (Homo sapiens, UniProt P06493); assay: Kinase selectivity screen; details: read-out: % Inhibition CDK1/CCNB1
[31] = target: PRKACA (Homo sapiens, UniProt P17612); assay: Kinase selectivity screen; details: read-out: % Inhibition PRKACA
[32] = target: CSNK2A2 (Homo sapiens, UniProt P19784); assay: Kinase selectivity screen; details: read-out: % Inhibition CSNK2A2
[33] = target: AURKB (Homo sapiens, UniProt Q96GD4); assay: Kinase selectivity screen; details: read-out: % Inhibition AURKB
Sequence of AURKB (Q96GD4 whole entry, species assumed): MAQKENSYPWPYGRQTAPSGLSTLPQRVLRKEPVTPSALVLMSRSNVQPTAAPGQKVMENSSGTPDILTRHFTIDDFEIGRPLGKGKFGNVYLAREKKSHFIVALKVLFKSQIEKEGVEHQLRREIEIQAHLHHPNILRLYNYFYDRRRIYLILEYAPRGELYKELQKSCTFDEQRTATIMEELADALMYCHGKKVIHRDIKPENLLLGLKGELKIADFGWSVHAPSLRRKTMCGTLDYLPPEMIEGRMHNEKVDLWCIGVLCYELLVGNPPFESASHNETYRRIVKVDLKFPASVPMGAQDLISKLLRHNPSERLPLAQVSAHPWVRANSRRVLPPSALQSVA

[34] = target: Full-length human MNK2 (Homo sapiens, UniProt Q9HBH9, T379D); assay: MNK2 biochemical IC50 assay (Caliper mobility shift)

Sequence of PTK2 (Q05397 whole entry, species assumed): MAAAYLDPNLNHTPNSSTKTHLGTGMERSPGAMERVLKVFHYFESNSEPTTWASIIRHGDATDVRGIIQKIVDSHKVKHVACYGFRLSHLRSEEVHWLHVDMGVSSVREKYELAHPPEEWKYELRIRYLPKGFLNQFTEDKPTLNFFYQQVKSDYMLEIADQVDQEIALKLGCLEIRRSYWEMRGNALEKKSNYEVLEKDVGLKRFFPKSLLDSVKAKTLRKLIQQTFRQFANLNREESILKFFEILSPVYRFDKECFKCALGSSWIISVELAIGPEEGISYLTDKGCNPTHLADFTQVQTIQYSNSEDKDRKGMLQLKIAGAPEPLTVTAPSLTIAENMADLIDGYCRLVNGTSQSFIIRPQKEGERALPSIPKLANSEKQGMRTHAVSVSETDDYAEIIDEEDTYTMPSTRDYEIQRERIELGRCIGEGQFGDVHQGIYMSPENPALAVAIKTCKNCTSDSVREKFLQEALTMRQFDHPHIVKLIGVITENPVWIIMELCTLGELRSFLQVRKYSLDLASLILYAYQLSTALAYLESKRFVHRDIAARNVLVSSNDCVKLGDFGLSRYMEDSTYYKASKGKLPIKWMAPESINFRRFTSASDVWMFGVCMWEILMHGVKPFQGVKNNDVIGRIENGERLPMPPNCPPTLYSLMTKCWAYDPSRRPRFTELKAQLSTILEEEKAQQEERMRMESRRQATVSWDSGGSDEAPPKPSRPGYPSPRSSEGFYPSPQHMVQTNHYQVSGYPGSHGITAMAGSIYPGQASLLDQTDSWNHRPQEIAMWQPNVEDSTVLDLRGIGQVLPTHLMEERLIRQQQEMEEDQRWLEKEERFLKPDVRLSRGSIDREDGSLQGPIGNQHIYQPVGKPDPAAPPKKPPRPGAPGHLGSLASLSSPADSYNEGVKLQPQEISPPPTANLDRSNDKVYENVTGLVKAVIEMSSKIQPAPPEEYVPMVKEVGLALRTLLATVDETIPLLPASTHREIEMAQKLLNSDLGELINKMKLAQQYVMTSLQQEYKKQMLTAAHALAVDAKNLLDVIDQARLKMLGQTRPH

CC(C)Oc1cc(F)ccc1Nc1ncnc2cc(C(=O)NCCCN(C)C)n(C)c12 [Example 40, N-[3-(dimethylamino)propyl]-4-{[4-fluoro-2-(propan-2-yloxy)phenyl]amino}-5-methyl-5H-pyrrolo[3,2-d]pyrimidine-6-carboxamide]
7%: inhibition at 1 µM [1]
5%: inhibition at 1 µM [14] | inhibition at 1 µM [16] | inhibition at 1 µM [20] | inhibition at 1 µM [21]
1%: inhibition at 1 µM [6]
0%: inhibition at 1 µM [2] | inhibition at 1 µM [3] | inhibition at 1 µM [4] | inhibition at 1 µM [5] | inhibition at 1 µM [9] | inhibition at 1 µM [10] | inhibition at 1 µM [11] | inhibition at 1 µM [12] | inhibition at 1 µM [13] | inhibition at 1 µM [15] | inhibition at 1 µM [17] | inhibition at 1 µM [18] | inhibition at 1 µM [19] | inhibition at 1 µM [22] | inhibition at 1 µM [23] | inhibition at 1 µM [24] | inhibition at 1 µM [25] | inhibition at 1 µM [26] | inhibition at 1 µM [27] | inhibition at 1 µM [28] | inhibition at 1 µM [30] | inhibition at 1 µM [31] | inhibition at 1 µM [32]
2%: inhibition at 1 µM [8]
28%: inhibition at 1 µM [29]
39.8 nM: IC50 [34]
8%: inhibition at 1 µM [7]
14%: inhibition at 1 µM [33]
